From patent publication US7879886B2, “Iron binding agents” (University of Florida Research Foundation, Inc., priority 1998, dated 2011)
Where two headings read alike, the source gives them in different places.

Tests used:
[1] = Iron clearance efficiency in the normal (not iron-loaded) bile duct-cannulated Sprague-Dawley rat; assay type: in vivo
From the text: (§1) One screen for efficacy is the normal (not iron-loaded) Sprague-Dawley rat with a cannulated bile duct. In this model, collection of bile and urine after oral or parenteral administration of a chelator permits the rapid determination of the magnitude and route(s) of excretion. The iron-loaded Cebus apella monkey is used as a better screen, however. To date, the behavior of iron chelators in this primate model has been-quantitatively predictive of both the magnitude and routes of iron clearance after human administration.
(§2) The primary measure of activity is the efficiency of the compound, as assessed in both rodent and primate models and compared with sc DFO. Compound efficiency is a comparative evaluation of how much iron excretion a chelator promotes relative to the theoretical amount. For example, the hexacoordinate chelator DFO forms 1:1 iron complexes with a formation constant of 3×10^30 M^−1 (Anderegg et al., Helv. Chim. Acta 46: 1409-1422 (1963)); if the efficiency were 100%, one mmol of DFO administered to an animal would cause one mmol of the iron complex to be excreted. In fact, only 5% of the calculated iron is excreted when DFO is administered to humans (Kirking et al., Clin. Pharmacol. 10:775-783 (1991)). In the case of the DFT analogues, the efficiency calculation is based on the formation of a 2:1 complex with a formation constant assumed to be similar to that of the parent compound, 4×10^29 M^−1 (Anderegg et al., J. Chem. Soc., Chem. Commun. 1194-1196 (1990).

malarial parasites = experiment: Impact on malarial parasites in vitro (48 h exposure, 48 h after removal, percent parasitemia); assay type: cell-based, Plasmodium
From the text: Studies can be done on the developmental stages and morphology of the malarial parasite in vitro; the minimum effective concentration required for cytotoxicity can be shown. The target structures include the nuclear envelope, the membrane of the food vacuole, accumulation of electron-dense substances in the mitochondria, undigested materials, and dilation of the endoplasmic reticulum.
In order to determine the concentration at which a compound is cytostatic and cytotoxic, the parasites are exposed to the drug using at least two different concentrations. After 48 h the chelator is removed, and the parasites are incubated for an additional 48 h. The percent parasitemia is determined at both time points (48 and 96 h). The effects of the various compounds on malarial parasites seem quite varied. For the purposes of comparison, DFO can serve as the positive control. […] However, at a concentration of 10^−4 M, DFO is cytotoxic; the plasmodia die during the 48-h incubation with the compound.
The compounds designated as 8 and 22 in Table I are active in this in vitro assay. Others can be similarly tested.

[2] = cited from earlier work
[3] = administered to humans; cited from earlier work
[4] = Iron clearance efficiency in the iron-loaded Cebus apella monkey; assay type: in vivo
From the text: as §1, §2

SMILES | % Efficiency of Iron Clearance ([1]; route not given) | % Efficiency of Iron Clearance ([1]; po) | % Efficiency of Iron Clearance ([4]; 150 μmol/kg po) | % Efficiency of Iron Clearance ([4]; 300 μmol/kg po) | % Efficiency of Iron Clearance ([1]; sc) | further results
O=C(O)c1ccc(C2=N[C@@H](C(=O)O)CS2)c(O)c1 [7(S), (S)-4,5-Dihydro-2-(2-hydroxy-4-carboxyphenyl)-4-thiazolecarboxylic acid] | ≦0.5% |  |  |  |  | 
CC(=O)N(O)CCCCCNC(=O)CCC(=O)N(O)CCCCCNC(=O)CCC(=O)N(O)CCCCCN [DFO] |  |  |  |  |  | Effect on plasmodia (malarial parasites; 48-h incubation at 10^−4 M): cytotoxic; Malarial growth after the compound is removed (malarial parasites; after 48-h exposure at 10^−5 M, compound removed): normal growth resumes; Effect on malarial growth (malarial parasites; initial 48-h continuous exposure at 10^−5 M): inhibits malarial growth; Formation constant of iron complex ([2]; 1:1 iron complex): 3e+30 M⁻¹; Efficiency: calculated iron excreted [3]: 5%
O=C(O)C1CSC(c2ccc(O)cc2O)=N1 [5(S), 4,5-Dihydro-2-(2-,4-dihydroxyphenyl)-4-thiazolecarboxylic acid] |  | 2.4 ± 0.9 (po) % | 4.2 ± 1.4% | 5.3 ± 1.7% |  | % Efficiency of Iron Clearance ([4]; 150 μmol/kg in H2O sc): 5.6 ± 0.9%; % Efficiency of Iron Clearance ([4]; 300 μmol/kg in H2O po): 4.8 ± 1.4%
O=C(C1CSC(c2ncccc2O)=N1)N(O)Cc1ccccc1 (stereo not shown) [Compound 24] |  | 1 ± 0.1 (po) % |  | ≦0.5% | 1.4 ± 0.8 (sc) % | % Efficiency of Iron Clearance ([4]; 300 μmol/kg sc): ≦0.5%
O=C(O)[C@H]1CSC(c2ncccc2O)=N1 [2(S), (S)-desmethyldesferrithiocin] |  | 2.4 ± 0.56 (po) % | 4.8 ± 2.7% | 8.0 ± 2.5% | 1.8 ± 0.7 (sc) % | % Efficiency of Iron Clearance ([4]; 300 μmol/kg sc): 8.3 ± 2.7%
C[C@]1(C(=O)O)CSC(c2ncccc2O)=N1 [1(S), desferrithiocin, reference compound] | 5.5 ± 3.2% |  | 16.1 ± 8.5% |  |  | Formation constant of iron complex ([2]; 2:1 complex): 4e+29 M⁻¹
COc1cccc(C2=N[C@@H](C(=O)O)CS2)c1O [6(S), (S)-4,5-dihydro-2-(2-hydroxy-3-methoxyphenyl)-4-thiazolecarboxylic acid] |  | 0.9 ± 0.3 (po) % |  |  | 0.5 ± 0.9 (sc) % | 
O=C(O)[C@H]1CSC(Cc2ccccc2O)=N1 [15(S), (S)-4,5-Dihydro-2-(2-hydroxyphenylmethyl)-4-thiazolecarboxylic acid] | ≦0.5% |  |  |  |  | 
C[C@]1(C(=O)O)CSC(c2ccc(O)cc2O)=N1 [28(S), 4′-hydroxydesazaDFT] | ≦0.5% |  | 13.4 ± 5.8% |  |  | % Efficiency of Iron Clearance ([4]; 75 μmol/kg po): 17.7 ± 3.9%
O=C(O)CC[C@H]1CSC(c2ccccc2O)=N1 [17(S), (S)-4,5-dihydro-2-(2-hydroxyphenyl)-4-thiazolepropanoic acid] | ≦0.5% |  |  |  |  | 
Oc1cccnc1C1=N[C@@H](N(O)CCOCCOCCN(O)[C@H]2CSC(c3ncccc3O)=N2)CS1 [Compound 25, (S,S)-N^1,N^8-bis[4,5-dihydro-2-(3-hydroxy-2-pyridinyl)-4-thiazoyl]-N^1,N^8-dihydroxy-3,6-dioxa-1,8-octanediamine] |  | 4.6 ± 2.1 (po) % |  |  | 20.6 ± 1.3 (sc) % | 
O=C(O)C1CSC(c2ccc(O)cc2O)=N1 [5(R), 4,5-Dihydro-2-(2-,4-dihydroxyphenyl)-4-thiazolecarboxylic acid] | ≦0.5% |  | 1.7 ± 0.8% |  |  | 
O=C(O)C1CCSC(c2ncccc2O)=N1 [14(S), 2-(3-hydroxy-2-pyridinyl)4H-5,6-dihydro-1,3-thiazine-4-carboxylic acid] | ≦0.5% |  |  |  |  | 
CN(O)C(=O)[C@H]1CSC(c2ncccc2O)=N1 [Compound 22, (S)-desmethyldesferrithiocin, N-methylhydroxamate] |  | 3.1 ± 0.4 (po) % | 6.9 ± 3.0% | 13.2 ± 7.7% | 5.3 ± 0.7 (sc) % | % Efficiency of Iron Clearance ([4]; 150 μmol/kg sc): 11.7 ± 5.5%; Activity in the in vitro malarial parasite assay (malarial parasites): active
C[C@]1(C(=O)O)CSC(c2ccccc2O)=N1 [9(S)] |  | 2.7 ± 0.5 (po) % |  | 13.1 ± 4% |  | % Efficiency of Iron Clearance ([4]; 75 μmol/kg po): 21.5 ± 12%; % Efficiency of Iron Clearance ([4]; 300 μmol/kg sc): 43.3 ± 8.5%
O=C(O)C[C@H]1CSC(c2ccccc2O)=N1 [16(S), (S)-4,5-Dihydro-2-(2-hydroxyphenyl)-4-thiazoleacetic acid] | ≦0.5% |  |  |  |  | 
